From EP2406206B1, “TETRAHYDRONAPHTHALEN-2-OL DERIVATIVES” (MSD Oss B.V., priority 2009, dated 2010)

Columns and labels:
[1] = target: human estrogen receptor β receptor (hERβ) (Homo sapiens, UniProt Q92731); assay: ERβ transactivation bioassay in recombinant CHO cells (rat oxytocin promoter, luciferase reporter); type: cell-based; details: for ERβ/ERα ratio: ERβ agonistic selectivity over ERα, transactivation data; for EC50: transactivation of luciferase via hERβ in CHO cells, read-out: ERβ agonistic EC50; for ERβ eudismic ratio: ratio of the activities of the eutomer and the distomer on ERβ
Chain of human estrogen receptor β receptor (hERβ) (Q92731 whole entry): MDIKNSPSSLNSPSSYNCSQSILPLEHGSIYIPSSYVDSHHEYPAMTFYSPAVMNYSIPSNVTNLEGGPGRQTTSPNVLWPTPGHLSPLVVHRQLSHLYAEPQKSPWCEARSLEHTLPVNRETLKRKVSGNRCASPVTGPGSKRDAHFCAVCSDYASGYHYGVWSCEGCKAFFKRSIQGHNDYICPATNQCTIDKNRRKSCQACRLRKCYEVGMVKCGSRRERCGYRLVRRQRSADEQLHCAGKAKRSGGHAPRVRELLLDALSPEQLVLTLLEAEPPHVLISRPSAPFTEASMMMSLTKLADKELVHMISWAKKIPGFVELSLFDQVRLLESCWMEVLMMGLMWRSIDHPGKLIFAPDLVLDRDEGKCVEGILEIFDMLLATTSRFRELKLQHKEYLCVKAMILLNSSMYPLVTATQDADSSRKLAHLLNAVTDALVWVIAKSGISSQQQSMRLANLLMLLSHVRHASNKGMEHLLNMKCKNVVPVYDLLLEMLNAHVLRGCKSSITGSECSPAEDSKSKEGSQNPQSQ
Protocol: (§1) The estrogenic and antiestrogenic activity of compounds was determined in an in vitro bioassay with recombinant Chinese hamster ovary (CHO) cells stably co-transfected with the human estrogen receptor α (hERα) or β receptor (hERβ), the rat oxytocin promoter (RO) and the luciferase reporter gene (LUC). The estrogenic activity of a test compound to stimulate the transactivation of the enzyme luciferase mediated via the estrogen receptors hERα or hERβ is expressed in nM. The assay was performed as described by De Gooyer et al., Steroids 68 (2003), 21-30. Table 7. ERβ and ERα transactivation data

[2] = metabolic stability in human hepatocytes; type: in vitro ADME; details: cryopreserved human hepatocytes in suspension, tetrahydronaphthalen-2-ol, 37°C, sampled 0-120 min, LC-MS/MS, read-out: Human hepatocyte T1/2
Protocol: A number of compounds 9, 11 and 12 were tested on metabolic stability in human hepatocytes. The hepatic stability was compared to corresponding chroman compounds 25, 26 or 27 (see structures below).
Test compounds were diluted to 3 µM in incubation medium. Then 40 µl of the 3 µM test compounds was pipetted into a 96 well microtiter plate (flat bottom). Hepatocytes (stored at -140 °C) were thawed in a 37°C water bath. The cells were resuspended into pre-warmed thawing medium and were centrifuged for 5 minutes at 50g at room temperature. The supernatant was discarded and the remaining cell pellet was resuspended in warm incubation medium and diluted to 7.5 E5 cells/ml. Then 80 µl of the cell suspension was added to each well of the 96 well microtiter plate containing the test compounds. The resulting mixture was incubated at 37°C and was sampled at t=0, 5, 30, 60, and 120 min. The samples were analyzed by LC-MS/MS to determine the content of unchanged test compound. Based on the rate of reduction of the content of test compound over time, the half-live (T1/2) was calculated. Metabolic stability in human hepatocytes

[3] = target: T1, human estrogen receptor α (hERα) (Homo sapiens, UniProt P03372); assay: ERα transactivation bioassay in recombinant CHO cells (rat oxytocin promoter, luciferase reporter); type: cell-based; details: ratio of the activities of the eutomer and the distomer on ERα
T1 sequence (P03372 1-595): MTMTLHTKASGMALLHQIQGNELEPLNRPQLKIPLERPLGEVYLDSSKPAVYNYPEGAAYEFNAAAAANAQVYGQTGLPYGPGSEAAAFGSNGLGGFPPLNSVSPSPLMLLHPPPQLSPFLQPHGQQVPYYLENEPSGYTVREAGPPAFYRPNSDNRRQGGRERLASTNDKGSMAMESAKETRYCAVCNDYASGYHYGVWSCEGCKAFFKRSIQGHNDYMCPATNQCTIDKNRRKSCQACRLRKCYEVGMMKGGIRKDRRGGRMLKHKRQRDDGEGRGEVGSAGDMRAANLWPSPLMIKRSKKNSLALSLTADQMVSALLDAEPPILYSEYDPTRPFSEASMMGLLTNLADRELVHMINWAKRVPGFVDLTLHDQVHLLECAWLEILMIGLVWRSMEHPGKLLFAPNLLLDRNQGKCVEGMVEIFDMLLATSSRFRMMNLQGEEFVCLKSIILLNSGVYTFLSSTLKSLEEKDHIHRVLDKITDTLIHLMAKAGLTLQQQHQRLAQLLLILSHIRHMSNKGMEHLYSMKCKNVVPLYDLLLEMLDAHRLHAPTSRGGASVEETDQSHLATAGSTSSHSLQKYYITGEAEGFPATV
Protocol: as §1

Compound	ERβ/ERα ratio [1]	EC50 [1]	half-life at 1 µM [2]	ERβ eudismic ratio [1]	ERα eudismic ratio [3]
Cc1cc(C2Cc3ccc(O)cc3C(Cc3ccccc3F)C2C)ccc1O (racemic) [Compound 9r, 8-(2-fluorobenzyl)-6-(4-hydroxy-3-methylphenyl)-7-methyl-5,6,7,8-tetrahydronaphthalen-2-ol]	>83	1.2 nM	0.965 h	–	–
CC1C(c2ccc(O)cc2)Cc2ccc(O)c(F)c2C1Cc1ccccc1F (racemic) [Compound 9s, 1-fluoro-8-(2-fluorobenzyl)-5,6,7,8-tetrahydro-6-(4-hydroxyphenyl)-7-methylnaphthalen-2-ol]	>21	4.7 nM	1.61 h	–	–
CC1C(c2ccc(O)cc2)Cc2ccc(O)cc2C1Cc1c(F)cccc1F (racemic) [Compound 9i, 8-(2,6-difluorobenzyl)-6-(4-hydroxyphenyl)-7-methyl-5,6,7,8-tetrahydronaphthalen-2-ol]	>102	0.98 nM	–	–	–
CC1C(c2ccc(O)cc2)Cc2ccc(O)cc2C1Cc1ccccc1F (racemic) [Compound 9a, 8-(2-fluorobenzyl)-6-(4-hydroxyphenyl)-7-methyl-5,6,7,8-tetrahydronaphthalen-2-ol]	193	0.45 nM	–	–	–
CC1C(c2ccc(O)cc2F)Cc2ccc(O)cc2C1Cc1ccccc1F (racemic) [Compound 9p, 6-(2-fluoro-4-hydroxyphenyl)-8-(2-fluorobenzyl)-7-methyl-5,6,7,8-tetrahydronaphthalen-2-ol]	>333	0.3 nM	> 2 h	–	–
CCC1C(c2ccc(O)cc2)Cc2ccc(O)cc2C1Cc1ccccc1F (racemic) [Compound 9b, 8-(2-fluorobenzyl)-6-(4-hydroxyphenyl)-7-ethyl-5,6,7,8-tetrahydronaphthalen-2-ol]	77	0.35 nM	1.17 h	–	–
CCC1C(c2ccc(O)cc2)Cc2ccc(O)cc2C1Cc1ccccc1 (racemic) [Compound 9e, 8-benzyl-7-ethyl-6-(4-hydroxyphenyl)-5,6,7,8-tetrahydronaphthalen-2-ol]	18	0.42 nM	–	–	–
CCC1C(c2ccc(O)cc2)Cc2ccc(O)cc2C1Cc1ccccc1C (racemic) [Compound 9v, 7-ethyl-6-(4-hydroxyphenyl)-8-(2-methylbenzyl)-5,6,7,8-tetrahydronaphthalen-2-ol]	>63	1.6 nM	1.16 h	–	–
CC1C(c2ccc(O)cc2)Cc2ccc(O)cc2C1Cc1ccc(F)cc1 (racemic) [Compound 9g, 8-(4-fluorobenzyl)-6-(4-hydroxyphenyl)-7-methyl-5,6,7,8-tetrahydronaphthalen-2-ol]	>43	2.3 nM	–	–	–
CCC1C(c2ccc(O)cc2)Cc2ccc(O)cc2C1Cc1ccc(O)cc1 (racemic) [Compound 9m, 7-ethyl-8-(4-hydroxybenzyl)-6-(4-hydroxyphenyl)-5,6,7,8-tetrahydronaphthalen-2-ol]	2	31 nM	–	–	–
CC1C(c2ccc(O)cc2)Cc2ccc(O)cc2C1Cc1cc(F)ccc1F (racemic) [Compound 9h, 8-(2,5-difluorobenzyl)-6-(4-hydroxyphenyl)-7-methyl-5,6,7,8-tetrahydronaphthalen-2-ol]	>167	0.6 nM	–	–	–
CC1C(c2ccc(O)cc2)Cc2ccc(O)cc2C1Cc1ccccc1C#N (racemic) [Compound 9j, 2-((7-hydroxy-3-(4-hydroxyphenyl)-2-methyl-1,2,3,4-tetrahydronaphthalen-1-yl)methyl)benzonitrile]	605	0.56 nM	0.623 h	–	–
CC1C(c2ccc(O)cc2)Cc2ccc(O)cc2C1Cc1ccccc1Cl (racemic) [Compound 9l, 8-(2-chlorobenzyl)-6-(4-hydroxyphenyl)-7-methyl-5,6,7,8-tetrahydronaphthalen-2-ol]	339	0.33 nM	–	–	–
CC1C(c2ccc(O)cc2)Cc2ccc(O)cc2C1Cc1ccccc1 (racemic) [Compound 9d, 8-benzyl-6-(4-hydroxyphenyl)-7-methyl-5,6,7,8-tetrahydronaphthalen-2-ol]	51	0.68 nM	–	–	–
CCCC1C(c2ccc(O)cc2)Cc2ccc(O)cc2C1Cc1ccccc1F (racemic) [Compound 9c, 8-(2-fluorobenzyl)-6-(4-hydroxyphenyl)-7-propyl-5,6,7,8-tetrahydronaphthalen-2-ol]	33	0.4 nM	–	–	–
CCC1C(c2ccc(O)cc2)Cc2ccc(O)cc2C1Cc1ccc(F)cc1 (racemic) [Compound 9w, 7-ethyl-8-(4-fluorobenzyl)-6-(4-hydroxyphenyl)-5,6,7,8-tetrahydronaphthalen-2-ol]	12	0.91 nM	–	–	–
CCC1C(c2ccc(O)cc2)Cc2ccc(O)cc2C1Cc1ccccc1C#N (racemic) [Compound 9k, 2-((2-ethyl-7-hydroxy-3-(4-hydroxyphenyl)-1,2,3,4-tetrahydronaphthalen-1-yl)methyl)benzonitrile]	>204	0.49 nM	–	–	–
CC1C(c2ccc(O)cc2)Cc2ccc(O)cc2C1Cc1cccc(F)c1 (racemic) [Compound 9f, 8-(3-fluorobenzyl)-6-(4-hydroxyphenyl)-7-methyl-5,6,7,8-tetrahydronaphthalen-2-ol]	>33	3 nM	–	–	–
CC1C(c2ccc(O)cc2)Cc2ccc(O)c(F)c2C1Cc1c(F)cccc1F (racemic) [Compound 9y, 8-(2,6-difluorobenzyl)-1-fluoro-5,6,7,8-tetrahydro-6-(4-hydroxyphenyl)-7-methyl-naphthalen-2-ol]	>8	12 nM	1.83 h	–	–
COc1ccccc1CC1c2cc(O)ccc2CC(c2ccc(O)cc2)C1C (centres unmarked) [Compound 8n, 6-(4-hydroxyphenyl)-8-(2-methoxybenzyl)-7-methyl-5,6,7,8-tetrahydronaphthalen-2-ol]	>40	2.5 nM	–	–	–
CCC1C(c2ccc(O)cc2F)Cc2ccc(O)cc2C1Cc1ccccc1F (racemic) [Compound 9o, 7-ethyl-6-(2-fluoro-4-hydroxyphenyl)-8-(2-fluorobenzyl)-5,6,7,8-tetrahydronaphthalen-2-ol]	42	0.17 nM	1.22 h	–	–

More lines, now with the values ahead:

ERβ/ERα ratio [1]	EC50 [1]	half-life at 1 µM [2]	ERβ eudismic ratio [1]	ERα eudismic ratio [3]	Compound
>213	0.47 nM	–	>212	–	C[C@H]1[C@@H](c2ccc(O)cc2)Cc2ccc(O)cc2[C@H]1Cc1c(F)cccc1F (single isomer, unassigned) [Compound 11i]
–	–	1.12 h	–	–	C[C@@H]1[C@H](c2ccc(O)cc2)Cc2ccc(O)cc2[C@@H]1Cc1c(F)cccc1F (single isomer, unassigned) [Compound 12i]
>714	0.14 nM	0.49 h	143	–	C[C@H]1[C@@H](c2ccc(O)cc2)Cc2ccc(O)cc2[C@H]1Cc1ccccc1C#N (single isomer, unassigned) [Compound 11j]
19	1.4 nM	–	9	>4	C[C@H]1[C@@H](c2ccc(O)cc2)Cc2ccc(O)cc2[C@H]1Cc1ccc(F)cc1 (single isomer, unassigned) [Compound 11g]
–	–	1.11 h	–	–	C[C@@H]1[C@H](c2ccc(O)cc2)Cc2ccc(O)cc2[C@@H]1Cc1ccccc1F (single isomer, unassigned) [Compound 12a]
61	0.36 nM	–	42	0.4	CC[C@H]1[C@@H](c2ccc(O)cc2)Cc2ccc(O)cc2[C@H]1Cc1ccc(F)cc1 (single isomer, unassigned) [Compound 11w]
21	1.2 nM	–	13	>4	C[C@H]1[C@@H](c2ccc(O)cc2)Cc2ccc(O)cc2[C@H]1Cc1cccc(F)c1 (single isomer, unassigned) [Compound 11f]
